Assay results: patent US20260364080A1, “PYRAZOLO-PYRIMIDINONE COMPOUNDS FOR USE IN METHODS OF INHIBITING WEE1 A KINASE” (Acrivon Therapeutics, Inc., priority 2023, published 2026)

Assays:
[1] = biological target: T1, recombinant human Wee1A kinase (Homo sapiens, UniProt P30291); assay: Wee1A kinase binding assay (LanthaScreen Eu time-resolved FRET); details: 30 nM tracer 178, 5 nM Wee1A kinase, 2 nM Eu-labeled antibody; 60 minutes at room temperature; read-out: Wee1A kinase Binding IC50
T1 construct: full length Wee1 kinase was expressed by baculovirus in insect cells; purchased Invitrogen PV3817; host or cells: insect cells (baculovirus)
T1 sequence (P30291 whole entry): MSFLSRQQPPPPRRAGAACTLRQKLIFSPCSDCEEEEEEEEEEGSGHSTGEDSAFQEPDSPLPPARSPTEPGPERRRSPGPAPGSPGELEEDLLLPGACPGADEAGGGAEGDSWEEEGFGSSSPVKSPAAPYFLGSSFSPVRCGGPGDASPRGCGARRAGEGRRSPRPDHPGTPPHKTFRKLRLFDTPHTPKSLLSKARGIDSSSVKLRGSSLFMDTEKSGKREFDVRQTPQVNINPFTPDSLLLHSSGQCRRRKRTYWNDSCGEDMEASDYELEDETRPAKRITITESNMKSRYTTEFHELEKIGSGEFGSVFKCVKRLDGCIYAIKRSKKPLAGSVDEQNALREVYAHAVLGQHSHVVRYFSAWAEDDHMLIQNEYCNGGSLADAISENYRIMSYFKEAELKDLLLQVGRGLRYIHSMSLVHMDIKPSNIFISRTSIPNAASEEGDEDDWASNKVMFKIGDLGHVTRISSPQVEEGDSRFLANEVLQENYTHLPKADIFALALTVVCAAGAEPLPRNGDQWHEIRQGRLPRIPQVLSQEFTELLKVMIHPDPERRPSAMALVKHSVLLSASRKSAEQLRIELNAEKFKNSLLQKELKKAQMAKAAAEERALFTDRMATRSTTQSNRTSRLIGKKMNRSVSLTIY
Method in brief: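 Full-length, baculovirus-expressed GST-tagged Wee1A (5 nM) was mixed with 2 nM Eu-anti-GST antibody, 30 nM kinase tracer 178 and compound (1% DMSO). Buffer was 50 mM HEPES pH 7.5, 10 mM MgCl2, 1 mM EGTA, 0.01% Brij-35, incubated 60 min at room temperature. TR-FRET 665/615 nm emission ratios from duplicates were curve-fitted.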

[2] = biological target: T2, Wee1A kinase (CDK1 Tyr15 phosphorylation in ACHN renal cell carcinoma cells) (Homo sapiens, UniProt P30291); assay: High-content imaging of pCdk1 Y15, Wee1A kinase target engagement in ACHN cells; type: cell-based; details: 4 h treatment, nuclear positivity for pCdk1 Y15 vs DMSO control, read-out: CDK1 Tyr15 Phosphorylation EC50
T2 construct: pCDK1 Tyr15 immunofluorescence read-out
T2 sequence (P30291 whole entry): as above
Method in brief: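 ACHN cells exposed to compound for 4 h over 7–5,000 nM or 0.3–200 nM, then fixed and immunostained for pCDK1 Y15 with DAPI nuclear counterstain. The percentage of pCdk1 Y15 nucleus-positive cells relative to DMSO control was imaged per well; EC50 from dose-response curves.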

[3] = biological target: T3, Myt1 kinase (recombinant PMYT-1) (Homo sapiens, UniProt Q99640); assay: Myt1 kinase binding assay (LanthaScreen Eu Kinase Binding Assay); details: 3 nM tracer 178, 2.5 nM PMYT-1, 1 nM Eu-labeled antibody; read-out: Myt1 kinase Binding IC50
T3 construct: full length PMYT-1 was expressed by baculovirus in insect cells; purchased Invitrogen A30984; host or cells: insect cells (baculovirus)
T3 sequence (Q99640 1-499): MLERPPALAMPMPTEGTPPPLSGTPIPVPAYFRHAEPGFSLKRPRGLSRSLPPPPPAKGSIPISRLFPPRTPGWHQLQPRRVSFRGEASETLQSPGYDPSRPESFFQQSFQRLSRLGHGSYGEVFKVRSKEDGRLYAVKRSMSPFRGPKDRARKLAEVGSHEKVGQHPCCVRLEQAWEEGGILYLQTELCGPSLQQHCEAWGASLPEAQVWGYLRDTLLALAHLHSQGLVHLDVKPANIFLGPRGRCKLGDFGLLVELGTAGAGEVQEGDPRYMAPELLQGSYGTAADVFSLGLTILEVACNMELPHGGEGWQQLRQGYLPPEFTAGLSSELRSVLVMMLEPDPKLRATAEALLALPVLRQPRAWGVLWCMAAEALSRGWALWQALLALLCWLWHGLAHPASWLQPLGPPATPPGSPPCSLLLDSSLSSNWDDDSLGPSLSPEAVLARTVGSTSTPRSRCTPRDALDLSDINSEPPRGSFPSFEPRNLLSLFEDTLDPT
Method in brief: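 The binding affinity of compounds for Myt1 kinase was measured with a LanthaScreen Europium (Eu) Kinase Binding Assay, a time-resolved FRET format in which test compounds compete against a labeled kinase tracer, and the results were expressed as IC50 values describing compound binding to Myt1.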

Structure (SMILES)	IC50 [1]	EC50 [2]	IC50 [3]
C=CCn1c(=O)c2cnc(Nc3cccc(-n4ccnc4)c3)nc2n1-c1cccc(OC2CCN(C)CC2)n1 [Compound 365, 2-allyl-6-[m-(1-imidazolyl)phenylamino]-1-[6-(1-methyl-4-piperidyloxy)-2-pyridyl]-1,2-dihydro-3H-1,2,5,7-tetraazainden-3-one]	< 10 nM	< 100 nM	20 to 100 nM
C=CCn1c(=O)c2cnc(Nc3ccc(F)cc3)nc2n1-c1cccc(OC2CCCN(C)CC2)n1 (single isomer, unassigned) [Compound 351]	< 10 nM	< 100 nM	20 to 100 nM
CCn1c(=O)c2cnc(Nc3ccccc3)nc2n1-c1cccc(OC2CCN(C)CC2)n1 [Compound 117, 6-anilino-2-ethyl-1-[6-(1-methyl-4-piperidyloxy)-2-pyridyl]-1,2-dihydro-3H-1,2,5,7-tetraazainden-3-one]	< 10 nM	< 100 nM	20 to 100 nM
C=CCn1c(=O)c2cnc(Nc3ccc(F)cc3)nc2n1-c1cccc(OC2CCCNCC2)n1 (stereo not drawn) [Compound 315, 2-allyl-1-[6-(4-azepanyloxy)-2-pyridyl]-6-(p-fluorophenylamino)-1,2-dihydro-3H-1,2,5,7-tetraazainden-3-one]	< 10 nM	500 to 1000 nM	20 to 100 nM
CCn1c(=O)c2cnc(Nc3ccc(C#N)cc3)nc2n1-c1cccc(OC2CCNCC2)n1 [Compound 302, p-{2-ethyl-3-oxo-1-[6-(4-piperidyloxy)-2-pyridyl]-1,2-dihydro-3H-1,2,5,7-tetraazainden-6-ylamino}benzonitrile]	< 10 nM	500 to 1000 nM	20 to 100 nM
CCn1c(=O)c2cnc(Nc3cnn(C)c3)nc2n1-c1cccc(OC2CCN(C)CC2)n1 [Compound 132, 2-ethyl-1-[6-(1-methyl-4-piperidyloxy)-2-pyridyl]-6-(1-methyl-4-pyrazolylamino)-1,2-dihydro-3H-1,2,5,7-tetraazainden-3-one]	< 10 nM	100 to 500 nM	100 to 500 nM
C=CCn1c(=O)c2cnc(Nc3ccc4nn(C)cc4c3)nc2n1-c1cccc(OC2CCNCC2)n1 [Compound 274, 2-allyl-6-((2-methyl-2H-indazol-5-yl)amino)-1-(6-(piperidin-4-yloxy)pyridin-2-yl)-1,2-dihydro-3H-pyrazolo[3,4-d]pyrimidin-3-one]	< 10 nM	100 to 500 nM	< 20 nM
C=CCn1c(=O)c2cnc(Nc3ccc(F)cc3)nc2n1-c1cccc(NC2CCNCC2)n1 [Compound 125, 6-[(4-fluorophenyl)amino]-1-{6-[(piperidin-4-yl)amino]pyridin-2-yl}-2-(prop-2-en-1-yl)-1H,2H,3H-pyrazolo[3,4-d]pyrimidin-3-one]	< 10 nM	500 to 1000 nM	100 to 500 nM
C=CCn1c(=O)c2cnc(Nc3ccc(OCC(F)(F)F)c(C)c3)nc2n1-c1cccc(NC2CCNCC2)n1 [Compound 178, 2-allyl-1-[6-(4-piperidylamino)-2-pyridyl]-6-[4-(2,2,2-trifluoroethoxy)-3-toluidino]-1,2-dihydro-3H-1,2,5,7-tetraazainden-3-one]	< 10 nM	100 to 500 nM	100 to 500 nM
C=CCn1c(=O)c2cnc(Nc3cnc4c(cnn4C(C)C)c3)nc2n1-c1cccc(OC2CCNCC2)n1 [Compound 407, 2-allyl-6-((1-isopropyl-1H-pyrazolo[3,4-b]pyridin-5-yl)amino)-1-(6-(piperidin-4-yloxy)pyridin-2-yl)-1,2-dihydro-3H-pyrazolo[3,4-d]pyrimidin-3-one]	< 10 nM	< 100 nM	< 20 nM
C=CCn1c(=O)c2cnc(Nc3ccc4[nH]nc(Cl)c4c3)nc2n1-c1cccc(OC2CCNCC2)n1 [Compound 275, 2-allyl-6-((3-chloro-1H-indazol-5-yl)amino)-1-(6-(piperidin-4-yloxy)pyridin-2-yl)-1,2-dihydro-3H-pyrazolo[3,4-d]pyrimidin-3-one]	< 10 nM	> 1000 nM	20 to 100 nM
C=CCn1c(=O)c2cnc(Nc3ccc(Cl)cc3)nc2n1-c1cccc(N(C)[C@@H]2CCCNC2)n1 [Compound 171, 1-{6-[N—(R)-3-piperidyl-N-methylamino]-2-pyridyl}-2-allyl-6-(p-chlorophenylamino)-1,2-dihydro-3H-1,2,5,7-tetraazainden-3-one]	< 10 nM	> 1000 nM	> 500 nM
C=CCn1c(=O)c2cnc(Nc3ccc4c(cnn4C)c3)nc2n1-c1cccc(OC2CCNC(C)(C)C2)n1 (stereo not drawn) [Compound 337, 2-allyl-1-(6-((2,2-dimethylpiperidin-4-yl)oxy)pyridin-2-yl)-6-((1-methyl-1H-indazol-5-yl)amino)-1,2-dihydro-3H-pyrazolo[3,4-d]pyrimidin-3-one]	< 10 nM	< 100 nM	100 to 500 nM
C=CCn1c(=O)c2cnc(Nc3ccc(Cl)cc3)nc2n1-c1cccc(O[C@@H]2CCCN(C)C2)n1 [Compound 187, 1-{6-[(R)-1-methyl-3-piperidyloxy]-2-pyridyl}-2-allyl-6-(p-chlorophenylamino)-1,2-dihydro-3H-1,2,5,7-tetraazainden-3-one]	< 10 nM	500 to 1000 nM	100 to 500 nM
C=CCn1c(=O)c2cnc(Nc3cc(C)nc(C(F)(F)F)c3)nc2n1-c1cccc(OC2CCN(C)CC2)n1 [Compound 202, 6-{[2-methyl-6-(trifluoromethyl)pyridin-4-yl]amino}-1-{6-[(1-methylpiperidin-4-yl)oxy]pyridin-2-yl}-2-(prop-2-en-1-yl)-1H,2H,3H-pyrazolo[3,4-d]pyrimidin-3-one]	< 10 nM	500 to 1000 nM	100 to 500 nM
CCn1c(=O)c2cnc(Nc3cccc(-c4ccccc4)c3)nc2n1-c1cccc(OC2CCNCC2)n1 [Compound 338, 6-(3-biphenylylamino)-2-ethyl-1-[6-(4-piperidyloxy)-2-pyridyl]-1,2-dihydro-3H-1,2,5,7-tetraazainden-3-one]	< 10 nM	> 1000 nM	20 to 100 nM
C=CCn1c(=O)c2cnc(Nc3ccc(OCC(F)(F)F)cc3)nc2n1-c1ccnc(OC2CCN(C3COC3)CC2)n1 [Compound 371, 2-allyl-1-(2-((1-(oxetan-3-yl)piperidin-4-yl)oxy)pyrimidin-4-yl)-6-((4-(2,2,2-trifluoroethoxy)phenyl)amino)-1,2-dihydro-3H-pyrazolo[3,4-d]pyrimidin-3-one]	< 10 nM	< 100 nM	100 to 500 nM
C=CCn1c(=O)c2cnc(Nc3ccc(F)cc3)nc2n1-c1ccnc(OC2CCN(C)CC2)n1 [Compound 348, 2-allyl-6-((4-fluorophenyl)amino)-1-(2-((1-methylpiperidin-4-yl)oxy)pyrimidin-4-yl)-1,2-dihydro-3H-pyrazolo[3,4-d]pyrimidin-3-one]	< 10 nM	< 100 nM	20 to 100 nM
C=CCn1c(=O)c2cnc(Nc3ccc4c(c3)nnn4C(C)C)nc2n1-c1cccc(OC2CCNCC2)n1 [Compound 408, 2-allyl-6-((1-isopropyl-1H-benzo[d][1,2,3]triazol-5-yl)amino)-1-(6-(piperidin-4-yloxy)pyridin-2-yl)-1,2-dihydro-3H-pyrazolo[3,4-d]pyrimidin-3-one]	< 10 nM	< 100 nM	< 20 nM
C=CCn1c(=O)c2cnc(Nc3cccc(Br)c3)nc2n1-c1cccc(OC2CCN(C)CC2)n1 [Compound 269, 2-allyl-6-(m-bromophenylamino)-1-[6-(1-methyl-4-piperidyloxy)-2-pyridyl]-1,2-dihydro-3H-1,2,5,7-tetraazainden-3-one]	< 10 nM	100 to 500 nM	< 20 nM
C=CCn1c(=O)c2cnc(Nc3ccc4nc(C)sc4c3)nc2n1-c1cccc(OC2CCNCC2)n1 [Compound 264, 2-allyl-6-(2-methyl-1,3-benzothiazol-6-ylamino)-1-[6-(4-piperidyloxy)-2-pyridyl]-1,2-dihydro-3H-1,2,5,7-tetraazainden-3-one]	< 10 nM	< 100 nM	< 20 nM
